Assay: GHS categories as the set defines them, by LD50: 1 up to 5, 2 up to 50, 3 up to 300, 4 up to 2000, 5 above 2000 mg/kg
Conditions: rat; in vivo; po

Structure (SMILES)	GHS category
O=C(O)COc1nn(-c2cccc(C(F)(F)F)c2)c2ncccc12	4
CC1(C)[C@@H](O[C@H]2O[C@H](C(=O)O)[C@@H](O)[C@H](O)[C@H]2O[C@@H]2O[C@H](C(=O)O)[C@@H](O)[C@H](O)[C@H]2O)CC[C@]2(C)[C@H]3C(=O)C=C4[C@@H]5C[C@@](C)(C(=O)O)CC[C@]5(C)CC[C@@]4(C)[C@]3(C)CC[C@@H]12	5
CCCCCCCC/C=C\CCCCCCCCCCCC(=O)O	5
NC(=O)c1ccc(NC(=O)c2ccc([N+](=O)[O-])cc2)cc1	5
COP(=O)(NC(=O)C(Cl)Cl)SC (stereo not given)	4
OC(Cc1ccccc1Cl)(Cn1[nH]cnc1=S)C1(Cl)CC1 (stereo not given)	5
CCCCCCCC(O)CCO (stereo not given)	5
CC(CO)CO	5
CCCCCCCC(=O)OCCC(C)O (stereo not given)	2
CCO[Si](C)(OCC)OCC	5
COc1ccccc1NC(=O)c1cc2ccccc2cc1O	5
CC(C)=CC(C)(C)CC(C)(C)C	5
C=COCCCN	4
O=C(c1ccccc1)c1ccc2[nH]c(=O)oc2c1	5
CCCCCCCCC(C)C(C)CCCCCCCC (stereo not given)	5
CC(C)(CO)C(O)C(=O)NCCC(=O)NCCSSCCNC(=O)CCNC(=O)C(O)C(C)(C)CO (stereo not given)	5
O=C(O)C1(O)c2ccccc2-c2ccc(Cl)cc21 (stereo not given)	5
O=NNC1=NCCN1Cc1ccc(Cl)nc1	5
CCOC(=O)/C(Cl)=C/c1cc(N2C(=O)C3=C(CCCC3)C2=O)ccc1Cl	5
CC(C)=CC/C(C)=C/COC(=O)c1ccccc1	5
CCC(C)(C)OC(=O)N[C@@H](Cc1c[nH]c2ccccc12)C(=O)N[C@@H](CCSC)C(=O)N[C@@H](CC(=O)O)C(=O)N[C@@H](Cc1ccccc1)C(N)=O	5
CCC(=O)OC1CC2CC1C1CC=CC21 (stereo not given)	5

Structure (SMILES)	GHS category
Cc1ccc(Cl)cc1NC(=O)c1cc2ccccc2cc1O	5
CC(C)S	5
O=C1OCCC1O (stereo not given)	5
NC(=O)NNC(N)=O	5
O=C(CCl)Nc1nc2cc(Cl)ccc2o1	4
CCOCC(O)COc1ccc(NC(=O)CC[S+](C)C)cc1 (stereo not given)	5
COc1cc(S(=O)(=O)O)c(C)cc1NC(=O)CC(C)=O	5
CNC(=O)Oc1ccc(C)c2sccc12	3
Cc1cccc(N(C)C(=S)Oc2ccc3c(c2)C2CCC3C2)c1 (stereo not given)	4
c1ccc([Si]2(c3ccccc3)O[Si](c3ccccc3)(c3ccccc3)O[Si](c3ccccc3)(c3ccccc3)O[Si](c3ccccc3)(c3ccccc3)O2)cc1	5
CC(C)CCCCCCCOCCC#N	5
CCOC(=O)c1c(N)sc2c1CCN(Cc1ccccc1)C2	5
CCC[Si](OCC)(OCC)OCC	5
Nc1ncnc2c1ncn2[C@@H]1O[C@H](COP(=O)(O)OP(=O)(O)OP(=O)(O)O)[C@@H](O)[C@H]1O	5
O=C(O)C(=O)Nc1cccc(-c2nnn[nH]2)c1	5
COc1cc(OC)nc(NC(=O)NS(=O)(=O)c2ncccc2C(F)(F)F)n1	5
CC(C)(c1ccccc1)c1ccc(Nc2ccc(C(C)(C)c3ccccc3)cc2)cc1	5
CCCCCCCNC(=O)c1cnc2cccc(C)n2c1=O	3
O=C(O[C@H]1[C@H](OC(=O)c2cccnc2)[C@@H](OC(=O)c2cccnc2)[C@H](OC(=O)c2cccnc2)[C@@H](OC(=O)c2cccnc2)[C@H]1OC(=O)c1cccnc1)c1cccnc1	5
C/C=C(\C)C(=O)O[C@H]1C[C@@H](OC(C)=O)[C@@]2(C(=O)OC)CO[C@H]3[C@@H](O)[C@@](C)([C@]45O[C@@]4(C)[C@H]4C[C@@H]5O[C@@H]5OC=C[C@@]54O)[C@H]4[C@]1(CO[C@]4(O)C(=O)OC)[C@@H]32	5
COc1nc(OC)nc(C(=O)c2cccc(F)c2N(C)S(=O)(=O)C(F)(F)F)n1	5
OC[C@@H](O)[C@@H](O[C@@H]1O[C@H](CO)[C@H](O)[C@H](O)[C@H]1O)[C@H](O)[C@@H](O)CO	5

Structure (SMILES)	GHS category
CCSC	5
COc1ccccc1NC(=O)C(N=Nc1ccc(Cl)cc1[N+](=O)[O-])C(C)=O (stereo not given)	5
CCC1COC(Cn2ccnc2)(c2cc3cc(Cl)cc(Cl)c3o2)O1 (stereo not given)	4
CN(C)CCCNc1nc2cc(Cl)ccc2o1	4
O=C(Nc1ccc(NC(=O)c2cc3ccccc3c(N=Nc3cc(Cl)ccc3Cl)c2O)cc1)c1cc2ccccc2c(N=Nc2cc(Cl)ccc2Cl)c1O	5
FC(F)CCl	5
COC(=O)CSP(=S)(OC)OC	5
CCO[Si](CC(C)CC(C)(C)C)(OCC)OCC (stereo not given)	5
COC(=O)c1ccccc1S(=O)(=O)NC(=O)N(C)c1nc(C)nc(OC)n1	5
CC(=O)N(C)C(=O)Oc1cccc2c1OC(C)(C)O2	4
C[N+](C)(CCO)CC(O)C[N+](C)(C)CCO	4
OC1CCOC1 (stereo not given)	5
COCC1=C(C(=O)OC(C)OC(=O)OC(C)C)N2C(=O)[C@@H](NC(=O)/C(=N\OC)c3csc(N)n3)[C@H]2SC1 (stereo not given in full)	5
CCCC(=O)CC(=O)OCC	4
CC(=O)c1ccc2c(c1)oc(=O)n2C	5
CC1(C(=O)Nc2ccc(O)c(Cl)c2Cl)CCCCC1	5
O=c1cc[nH]c(=O)[nH]1	5
CC(=O)COc1nn(-c2cccc(C(F)(F)F)c2)c2ncccc12	4
Cc1ccc(C(C)C)cc1OC(=O)c1ccccc1Nc1cccc(C)c1C	5
Cc1ccc(S(=O)(=O)NC(=O)NN2CCCCCC2)cc1	5
CSC	4
CC(=O)Nc1ccc2cc(S(=O)(=O)O)c(N=Nc3ccc(S(=O)(=O)CCOS(=O)(=O)O)cc3)c(O)c2c1	5

Structure (SMILES)	GHS category
C[C@H]1c2cccc(O)c2C(=O)C2=C(O)[C@]3(O)C(=O)C(C(N)=O)=C(O)[C@@H](N(C)C)[C@@H]3[C@@H](O)[C@@H]21	5
CC1(C)CC2(CC(C)(C)N1)OC1(CCCCCCCCCCC1)NC2=O	5
CC(=O)C=CC=C(C)CCC=C(C)C	5
C[C@@H]1CN2CC(=O)Nc3ccc(Cl)cc3[C@]2(c2ccccc2)O1	5
CCOCC1COC(Cn2cncn2)(c2cc3cc(Cl)cc(Cl)c3o2)O1 (stereo not given)	4
CC(=O)OCCC(C)CCCC(C)C (stereo not given)	5
COc1cnc(OC)n2nc(NS(=O)(=O)c3c(OCC(F)F)cccc3C(F)(F)F)nc12	5
CCCCCCCCCCOCCN1CCCC1=O	5
CNC(=O)C(=NNc1cccc(C)c1)C(C)=O	5
NCCCC[C@H](OP(=O)(O)CCCCc1ccccc1)C(=O)N1CCC[C@H]1C(=O)O	5
CC(=O)CC(=O)Nc1cc(C)c(NC(=O)CC(C)=O)cc1C	5
O=C(O)c1ccccc1C(=O)N1CCSC1	5
C=CC1CCC(C2CCC(CCC)CC2)CC1 (stereo not given)	5
CC(C)=CCN(CC=C(C)C)CCC(C#N)(CC=C(C)C)c1cccc2ccccc12 (stereo not given)	4
Clc1ccc(C(c2ccccc2Cl)C(Cl)Cl)cc1 (stereo not given)	5
COC1[C@@H](O[C@@H]2O[C@H](C)[C@@H](O[C@H]3C[C@@](C)(O)[C@H](OC(=O)CC(C)C)[C@H](C)O3)[C@H](N(C)C)[C@H]2O)[C@@H](CC=O)C[C@@H](C)[C@@H](O)C=CC=CC[C@@H](C)OC(=O)C[C@H]1OC(C)=O (stereo not given in full)	5
C=C1CC[C@H](O)C/C1=C/C=C1\CCC[C@]2(C)[C@@H]([C@H](C)CC[C@@H](O)C(C)(C)O)CC[C@@H]12	2
CO/N=C(/C(=O)N[C@@H]1C(=O)N2C(C(=O)OCOC(=O)C(C)(C)C)=C(C)CS[C@H]12)c1csc(N)n1	5
CCCCCNC(=O)c1cnc2cccc(C)n2c1=O	3
Cc1nc2n(c1/C=N/NC(=O)CN(C)C)CCS2	4
CCCC1CCOC(C)S1 (stereo not given)	5
O=C(O)c1cc(O)ccc1Nc1ccc(O)c(C(F)(F)F)c1	4

Structure (SMILES)	GHS category
CC[C@H](C)C(=O)O[C@H]1C[C@H](O)C=C2C=C[C@H](C)[C@H](CC[C@@H](O)C[C@@H](O)CC(=O)O)[C@H]21	5
CCCNC(=O)c1sc(-c2ccc(OC)cc2)nc1C	5
O=C1CC(Nc2ccc([N+](=O)[O-])cc2)=NN1c1c(Cl)cc(Cl)cc1Cl	5
O=C(O)c1ccc(/N=N/c2ccc(O)c(C(=O)O)c2)cc1	5
CCOC(=O)C1(C)OC(=O)N(c2cc(Cl)cc(Cl)c2)C1=O (stereo not given)	5
CCCCCCOC(=O)CCC	5
O=C=NS(=O)(=O)c1ccccc1C(F)(F)F	4
CCCCC1C(=O)N(c2cccc(O)c2)N(c2cccc(O)c2)C1=O	4
CCC1=NN(C(=O)NC(=O)c2ccc(Cl)cc2)C(C)(CC)C1 (stereo not given)	5
O=C(O)CNC(c1ccccc1)c1ccc(Cl)c(Cl)c1 (stereo not given)	4
CC(C)(C=O)CN1CCOCC1	5
Cc1cc(C)nc(NC(=O)NS(=O)(=O)c2ccccc2C(=O)OC2COC2)n1	5
CCOCCOCCOC(=O)C1CCC(C(=O)OCCOCCOCC)CC1 (stereo not given)	5
Cc1cccc2ncc(C(=O)NC3CCCC3)c(=O)n12	3
CC(C)c1ccccc1OP(=O)(Oc1ccccc1C(C)C)Oc1ccccc1C(C)C	5
C#C[C@]1(O)CC[C@H]2[C@@H]3CCc4cc(OC)ccc4[C@H]3CC[C@@]21C	5
CCCc1c(Cc2ccc(-c3sccc3-c3nn[nH]n3)cc2)c(=O)nc2nc(C)[nH]n12	4
CC(CCO)CCCC(C)(C)O (stereo not given)	5
CC1CC(OC(=O)C(C)(C)Oc2ccccc2Cl)CC(C)(C)C1 (stereo not given)	5
CCN(Cc1cccc(S(=O)(=O)O)c1)c1ccc(C(=C2C=CC(=[N+](CC)Cc3cccc(S(=O)(=O)[O-])c3)C=C2)c2ccc(S(=O)(=O)O)cc2)cc1	5
CCC(=O)OCC(=O)[C@@]1(OC(=O)CC)[C@@H](C)C[C@H]2[C@@H]3CCC4=CC(=O)C=C[C@]4(C)[C@@]3(Cl)[C@@H](O)C[C@@]21C	5
COC(=O)c1nccnc1N	5
